pIC50: −log10 of the molar value.
Target: High affinity nerve growth factor receptor (Homo sapiens, UniProt P04629)
Experiment: Kinase Binding Assay: TrkA binding activity was determined in a TrkA LanthaScreen™ Eu Kinase Binding Assay. 5 nM His-tagged recombinant human TrkA (6HIS tagged cytoplasmic domain from Invitrogen, Catalog No. PV3144) was incubated with 4 nM Alexa-Fluor® Tracer 236 (Invitrogen Cat. No. PV5592), 2 nM biotinylated anti-His (Invitrogen Cat. No. PV6090), and 2 nM europium-labeled Streptavidin (Invitrogen Cat. No. PV5899), in buffer (25 mM MOPS, pH 7.5, 5 mM MgCl2, 0.005% Triton X-100). Three fold serial dilutions of compounds of the invention in DMSO were added to a final percentage of 2% DMSO. After 60-minute incubation at 22° C., the reaction was measured using the EnVision mutlimode plate reader (PerkinElmer) via TR-FRET dual wavelength detection at […]. The percent of control was calculated using a ratiometric emission factor.

High affinity nerve growth factor receptor, sequence (P04629 whole entry, the tested form may be a part): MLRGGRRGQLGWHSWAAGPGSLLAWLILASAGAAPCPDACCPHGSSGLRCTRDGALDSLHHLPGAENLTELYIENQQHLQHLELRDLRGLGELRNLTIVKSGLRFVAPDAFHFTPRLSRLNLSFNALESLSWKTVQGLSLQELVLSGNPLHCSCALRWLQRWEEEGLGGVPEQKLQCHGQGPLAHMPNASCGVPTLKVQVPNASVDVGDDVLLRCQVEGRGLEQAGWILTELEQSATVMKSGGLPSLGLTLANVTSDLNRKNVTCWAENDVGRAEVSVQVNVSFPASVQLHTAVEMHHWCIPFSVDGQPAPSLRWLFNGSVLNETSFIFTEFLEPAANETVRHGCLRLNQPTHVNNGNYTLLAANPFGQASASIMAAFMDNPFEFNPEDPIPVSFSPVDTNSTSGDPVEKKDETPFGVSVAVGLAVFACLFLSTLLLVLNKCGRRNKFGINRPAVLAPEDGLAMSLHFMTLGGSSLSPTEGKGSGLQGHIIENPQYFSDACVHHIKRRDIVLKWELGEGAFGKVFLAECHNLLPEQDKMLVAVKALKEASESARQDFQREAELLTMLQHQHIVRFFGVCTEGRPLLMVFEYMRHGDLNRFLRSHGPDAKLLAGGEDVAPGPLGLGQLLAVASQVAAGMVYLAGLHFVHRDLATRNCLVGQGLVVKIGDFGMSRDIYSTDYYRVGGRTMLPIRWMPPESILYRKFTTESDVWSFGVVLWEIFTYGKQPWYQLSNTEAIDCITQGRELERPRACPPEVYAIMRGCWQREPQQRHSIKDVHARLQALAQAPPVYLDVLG

pIC50: > 7.00
SMILES: COCCN1C[C@@H](NC(=O)Nc2c(C)c(-c3cncc(OC)c3)nn2-c2ccccc2)[C@H](c2ccc(F)c(F)c2)C1
